According to patent US20180263992A1, “TREATMENT OF NEURODEGENERATIVE DISEASES” (BENEVOLENTAI BIO LIMITED, priority 2015, published 2018):

What was measured:
[1] = system: SOD1G93A mouse model of ALS; conditions: cited from earlier work
[2] = in vivo; cited from earlier work
human cancer cells = conditions: cited from earlier work
[3] = Entry of Gefitinib into the brain with prior P-gp inhibitor; format: in vivo, C57BL/6 mice
[4] = system: murine Hb9-GFP+ motor neurons co-cultured with ALS patient iAstrocytes; experiment: ALS patient iAstrocyte / mouse Hb9-GFP+ motor neuron co-culture, motor neuron survival; format: cell-based, human iAstrocytes, mouse motor neurons; conditions: iAstrocytes of three ALS patients pre-treated 24 h; survival at 72 h vs 24 h, normalised to DMSO control
P-glycoprotein (P-gp) = P-glycoprotein (P-gp) (Homo sapiens, UniProt P08183); conditions: Togashi et al. 2012; cited from earlier work
[5] = in vivo; cited from earlier work; remark: listed apart in the source
[6] = phase I trials; cited from earlier work
[7] = multi-dose animal studies; cited from earlier work
ALS = conditions: cited from earlier work

Chain of P-glycoprotein (P-gp) (P08183 whole entry): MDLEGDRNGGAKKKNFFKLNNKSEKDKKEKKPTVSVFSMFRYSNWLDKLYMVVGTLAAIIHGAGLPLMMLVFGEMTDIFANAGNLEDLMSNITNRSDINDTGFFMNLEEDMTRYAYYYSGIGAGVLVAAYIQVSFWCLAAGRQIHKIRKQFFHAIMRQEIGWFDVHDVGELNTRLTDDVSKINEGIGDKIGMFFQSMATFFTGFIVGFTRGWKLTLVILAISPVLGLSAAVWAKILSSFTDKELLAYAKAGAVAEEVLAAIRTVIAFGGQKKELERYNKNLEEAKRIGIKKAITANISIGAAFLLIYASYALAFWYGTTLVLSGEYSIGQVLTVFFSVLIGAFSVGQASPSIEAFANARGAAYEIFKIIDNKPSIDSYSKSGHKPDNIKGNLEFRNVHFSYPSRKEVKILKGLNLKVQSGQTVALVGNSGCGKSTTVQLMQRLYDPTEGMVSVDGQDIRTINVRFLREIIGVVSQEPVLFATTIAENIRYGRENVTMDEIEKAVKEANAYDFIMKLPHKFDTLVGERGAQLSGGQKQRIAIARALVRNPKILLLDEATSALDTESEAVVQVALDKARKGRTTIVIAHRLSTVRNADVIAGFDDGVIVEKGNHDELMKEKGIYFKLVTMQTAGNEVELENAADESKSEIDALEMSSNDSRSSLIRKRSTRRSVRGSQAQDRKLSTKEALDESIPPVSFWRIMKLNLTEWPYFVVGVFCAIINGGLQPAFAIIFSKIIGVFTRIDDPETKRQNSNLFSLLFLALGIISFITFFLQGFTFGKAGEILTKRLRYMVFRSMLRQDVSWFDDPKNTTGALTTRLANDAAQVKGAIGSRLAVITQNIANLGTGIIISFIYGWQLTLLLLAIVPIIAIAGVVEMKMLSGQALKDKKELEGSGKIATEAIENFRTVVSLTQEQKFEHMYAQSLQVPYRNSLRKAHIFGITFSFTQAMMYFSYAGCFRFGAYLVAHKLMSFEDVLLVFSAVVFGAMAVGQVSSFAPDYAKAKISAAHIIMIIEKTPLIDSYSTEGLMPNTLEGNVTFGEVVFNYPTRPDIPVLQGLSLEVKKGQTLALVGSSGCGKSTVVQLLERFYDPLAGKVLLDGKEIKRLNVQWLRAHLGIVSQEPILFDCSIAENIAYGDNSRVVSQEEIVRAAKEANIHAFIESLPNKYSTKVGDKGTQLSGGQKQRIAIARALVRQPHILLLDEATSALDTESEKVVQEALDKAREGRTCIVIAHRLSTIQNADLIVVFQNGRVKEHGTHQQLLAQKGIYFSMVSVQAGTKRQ

C#Cc1cccc(Nc2ncnc3cc(OCCOC)c(OCCOC)cc23)c1 [erlotinib]
lifespan [1]: failed to extend lifespan | modulation of markers for astrocytes and microglia [1]: did not correlate with a modulation of markers for astrocytes and microglia | penetration into the central nervous system [1]: penetrated into the central nervous system | protection of motor synapses [1]: did not protect motor synapses | symptom delay (readouts of disease onset and progression) [1]: modest yet statistically significant symptom delay | undesirable side effects [2]: skin irritation and diarrhea | cell-cycle progression (human cancer cells): blocks cell-cycle progression in the G1 phase | concentration inhibiting EGF-dependent cell proliferation (human cancer cells): nanomolar concentrations

CO[C@H]1C[C@@H]2CC[C@@H](C)[C@@](O)(O2)C(=O)C(=O)N2CCCC[C@H]2C(=O)O[C@H]([C@H](C)C[C@@H]2CC[C@@H](OCCO)[C@H](OC)C2)CC(=O)[C@H](C)/C=C(\C)[C@@H](O)[C@@H](OC)C(=O)[C@H](C)C[C@H](C)/C=C/C=C/C=C/1C [Everolimus]
CNS penetration of Gefitinib ([3]; Everolimus 10 mg/kg ip): did not appear to have any effect | plasma exposure of Gefitinib ([3]; Everolimus 10 mg/kg ip): increased

COc1cc2ncnc(Nc3ccc(F)c(Cl)c3)c2cc1OCCCN1CCOCC1 [gefitinib, N-(3-chloro-4-fluoro-phenyl)-7-methoxy-6-(3-morpholin-4-ylpropoxy)quinazolin-4-amine]
motor neuron survival [4]: dose-dependent increase in motor neuron survival | P-glycoprotein (P-gp) substrate status (P-glycoprotein (P-gp)): substrate | biological half-life [5]: 28 hours | maximal tolerated dosage [6]: 700 mg/day

C=CC(=O)Nc1cc2c(Nc3ccc(F)c(Cl)c3)ncnc2cc1OCCCN1CCOCC1 [canertinib]
toxicity [7]: minimal toxicity

Nc1nc2ccc(OC(F)(F)F)cc2s1 [Riluzole]
prolongs life (ALS; ALS): 2-3 months | relief of symptoms (ALS; ALS): does not relieve symptoms | undesirable side effects (ALS; in vivo): nausea and fatigue

COc1cc2c(cc1OC)CN(CCc1ccc(NC(=O)c3cccc4c(=O)c5cccc(OC)c5[nH]c34)cc1)CC2 [Elacridar]
CNS penetration of Gefitinib ([3]; Elacridar 100 mg/kg po before Gefitinib 30 mg/kg po, 2 h post dose): significantly increased | CNS penetration of Gefitinib ([3]; Elacridar 100 mg/kg po before Gefitinib 100 mg/kg po, 2 h post dose): significantly increased
